Experiments:
[1] = Pulmonary retention in isolated perfused rat lung; assay type: in vitro ADME; conditions: rat, 3 mg/kg, 2 h
[2] = test system: lungs from sham and PAH rats; assay: Pulmonary retention in isolated perfused rat lung; assay type: in vitro ADME; conditions: IT route, sham and PAH lungs
in vivo = conditions: male, Sprague-Dawley, rat, 3 mg/kg

recovery at 2 h ([1]; IPRL tubes (circuitry), other: intratracheal (IT) via the tracheal cannula, pH 7.4, recovery dose (%) IPRL tubes, IT route, PAH lungs, by subtraction from dose): 16.6 ± 7.7%
recovery at 2 h ([1]; IPRL tubes (circuitry), other: intratracheal (IT) via the tracheal cannula, pH 7.4, recovery dose (%) IPRL tubes, IT route, Sham lungs, by subtraction from dose): 7.4 ± 1%
recovery at 2 h ([1]; lung homogenate, other: intratracheal (IT) via the tracheal cannula, pH 7.4, recovery dose (%) lung, IT route, PAH lungs, fasudil 3 mg/kg): 70.1 ± 7.3%
recovery at 2 h ([1]; lung homogenate, other: intratracheal (IT) via the tracheal cannula, pH 7.4, recovery dose (%) lung, IT route, Sham lungs, fasudil 3 mg/kg): 71.8 ± 2%
recovery at 2 h ([1]; lung homogenate, other: via the cannulated pulmonary artery, mimicking IV, pH 7.4, recovery dose (%) lung, IV-mimicking route, PAH lungs, fasudil 3 mg/kg): 49.6 ± 6.2%
recovery at 2 h ([1]; lung homogenate, other: via the cannulated pulmonary artery, mimicking IV, pH 7.4, recovery dose (%) lung, IV-mimicking route, Sham lungs, fasudil 3 mg/kg): 34.7 ± 3.2%
recovery at 2 h ([1]; perfusate, other: intratracheal (IT) via the tracheal cannula, pH 7.4, recovery dose (%) perfusate, IT route, PAH lungs, fasudil 3 mg/kg): 13.3 ± 2.6%
recovery at 2 h ([1]; perfusate, other: intratracheal (IT) via the tracheal cannula, pH 7.4, recovery dose (%) perfusate, IT route, Sham lungs, fasudil 3 mg/kg): 20.8 ± 2.7%
recovery at 2 h ([1]; perfusate, other: via the cannulated pulmonary artery, mimicking IV, pH 7.4, recovery dose (%) perfusate, IV-mimicking route, PAH lungs, fasudil 3 mg/kg): 39.1 ± 3.9%
recovery at 2 h ([1]; perfusate, other: via the cannulated pulmonary artery, mimicking IV, pH 7.4, recovery dose (%) perfusate, IV-mimicking route, Sham lungs, fasudil 3 mg/kg): 56.5 ± 5.3%
drug concentration in the perfusate [2]: about 10 μg/mL
AUC(0-inf) (in vivo): 5.967 ± 0.0259 µg·h/mL
Cmax (in vivo; inhaled or intranasal): 3.04 ± 0.635 µg/mL
AUC(0-inf) (in vivo; iv): 5.967 ± 0.0259 µg·h/mL
Compound: O=S(=O)(c1cccc2cnccc12)N1CCCNCC1 [plain fasudil, fasudil]

Source: paper PMC7035787 (Molecular pharmaceutics, 2019)
